From patent publication US20060025419A1, “Imidazoquinoxaline compound for the treatment of melanoma” (priority 2004, published 2006)

How the values were obtained:
SK-Mel-5 cells [1] = test: Growth of cultured melanoma cells, hemocytometer counting; type: cell-based, human
Experimental: (§1) FIGS. 1A-1E. […] After 72 h treatment, cells were photographed. […] 2×10^6 SK-Mel-5 melanoma cells were subcutaneously inoculated into nude mice (n=5 mice per group). […] Tumor size was measured using an electronic digital caliper at intervals of 4 days. Tumor volume was calculated and statistically analyzed. Data shown are representative of two independent experiments. […] BMS-345541 levels in serum (μM, left axis) and tumor tissues (nmoles per gram tumor protein, right axes) were determined at the indicated time points.
A super-repressor form of human IκBα (S32, 36A) resistant to degradation and mutant IKKβ (K44M) was kindly provided by Javier Piedrafita (Sidney Kimmel Cancer Center, University of California-San Diego School of Medicine). Antibodies to IKKα (H-744), IKKβ (H-470), Bcl-2, Bax and AIF were purchased from Santa Cruz Biotechnology, Inc. (Santa Cruz, Calif.). Dihydroethidine, 3,3′dihexyloxacarbocyanine iodide and pan-caspase inhibitor (Z-VAD-FMK) were purchased from Molecular Probes (Eugene, Oreg.). N-acetyl-L-cysteine (NAC) and Tiron were from Sigma-Aldrich (St. Louis, Mo.). Normal human epidermal melanocytes (NHEM) were provided by the Skin Disease Research Center in Vanderbilt University School of Medicine. NHEM were cultured in 154 medium with 1× human melanocyte growth supplement (Cascade Biologicals, Inc.). The melanoma cell lines, Sk Mel5, A375 and Hs294T, originally established from human metastatic melanoma, were purchased from American Type Culture Collection and cultured in DMEM: Ham's F-12 medium containing 10% FBS, 2 mM of L-glutamine, 100 μM of MEM Non-Essential Amino Acids (Life Technologies, Inc.), and 1 mM of sodium pyruvate (Sigma Chemical Co.).
Aberrant activation of NF-κB has been associated with carcinogenesis, and constitutively high IKK activity has been detected in many tumor types, including human melanoma (Yang & Richmond, 2001; Liptay et al., 2003; Mathas et al., 2003). IKK is a major regulator of the NF-κB pathway and therefore represents an attractive therapeutic target in advanced cancers. […] After three days of culture, the cell numbers were determined by hemocytometer counting (Table 1).

A375 tumors = test: Melanoma tumor growth in nude mice; type: in vivo; conditions: 75 mg/kg orally once daily, 21 days, vs vehicle
[2] = BMS-345541 levels in mouse serum and tumor tissues after oral dose; type: in vivo, mice
Experimental: as §1
Tumor tissue levels of drug were 3.2±0.97, 12.5±3.28 and 28.1±2.65 nmoles per gram tissue protein for the three treatment groups, respectively.

NF-κB = test: NF-κB-dependent luciferase reporter assay; type: cell-based, human; conditions: 36 h
Experimental: (§2) FIGS. 2A-2D. […] SK-Mel-5 cells were plated in 6-well plates (1.5×10^5 cells per well) and then cotransfected with 1 μg of HIV long terminal repeat NF-κB-luciferase vector and β-galactosidase vector DNA using Lipofectamine Plus reagent. Twenty-four hours after transfection, cells in duplicate plates were treated with 0, 0.1, 1 and 10 μM of BMS-345541in DMSO and incubated for an additional 36 h. Cell extract was prepared and luciferase activity was detected. Luciferase activity was normalized to β-galactosidase activity. […] ATP. The [γ-^32P]-labeled IκBα protein was visualized by autoradiography. […] The supernatants from B were cleared by centrifugation, or (FIG. 2D) sera were collected from mice, and subjected to ELISA assay for CXCL1 according to the manufacture's protocol. Data shown are from a representative data set from two experiments performed in duplicate (total n=4 for each point). For ELISA; the mean value is representative of serum samples from five mice.

IKK = biological target: T1, IKK (Homo sapiens, UniProt O14920+O15111); test: IKK immunoprecipitation and in vitro kinase assay from treated SK-Mel-5 cells; type: cell-based; conditions: overnight (14 h) treatment, autoradiography (FIG. 2B)
T1 construct: Equal aliquots of cytoplasmic IKK proteins were immunoprecipitated with anti-IKKα/β antibodies; endogenous in cells; host or cells: SK-Mel-5 human melanoma cells, cytoplasmic extract, immunoprecipitated on Protein A/G agarose beads
Experimental: as §2

melanoma tumor = test: H&E and TUNEL staining of melanoma tumor sections; type: in vivo, mice
Experimental: FIGS. 4A-4H. […] Paraffin-embedded tumor tissues were subjected to H&E staining (FIGS. 4C & D) and DeadEnd Fluorometric TUNEL-assay for detection of apoptosis (FIGS. 4E & F). The TUNEL-positive cells are visualized in green fluorescence in a red (Propidium Iodide) background by fluorescence microscopy. […] After 36 h incubation, cells were collected and fixed with 1% formaldehyde and 70% ice-cold ethanol. The apoptotic cells were examined using TUNEL-assay and analyzed by flow cytometry through measuring fluorescein-12-dUTP at 520 nm. The apoptotic rate is indicated in each box. Data shown are represented one of three independent experiments. […] Cells were fixed and stained with Propidium iodide. Cell fluorescence was measured by flow cytometry and the data were analyzed using DNA content histogram deconvolution software (Multicycle from Phoenix Flow Systems). […]
In melanoma, constitutive activation of NF-κB confers tumor survival capacity and escape from apoptosis (Richmond, 2002). […] Apoptotic cells were labeled using DeadEnd Fluorometric TUNEL reagent and analyzed by flow cytometry. […] Thirty-six hours after transfection, cells were collected, labeled with TUNEL reagent and analyzed by flow cytometry. […] Induction of DNA fragmentation, a hallmark of apoptosis, was evaluated by staining DNA with ethidium bromide followed by quantization by FACS analysis.

SK-Mel-5 cells [3] = test: Nuclear apoptosis (DNA fragmentation) by flow cytometry; type: cell-based, human; conditions: for rate of apoptotic cells: 10 μM, 24 h
Experimental: FIGS. 4A-4H. […] Paraffin-embedded tumor tissues were subjected to H&E staining (FIGS. 4C & D) and DeadEnd Fluorometric TUNEL-assay for detection of apoptosis (FIGS. 4E & F). The TUNEL-positive cells are visualized in green fluorescence in a red (Propidium Iodide) background by fluorescence microscopy. […] After 36 h incubation, cells were collected and fixed with 1% formaldehyde and 70% ice-cold ethanol. The apoptotic cells were examined using TUNEL-assay and analyzed by flow cytometry through measuring fluorescein-12-dUTP at 520 nm. The apoptotic rate is indicated in each box. Data shown are represented one of three independent experiments. […] Cells were fixed and stained with Propidium iodide. Cell fluorescence was measured by flow cytometry and the data were analyzed using DNA content histogram deconvolution software (Multicycle from Phoenix Flow Systems). The percentage of apoptotic cells with fragmented DNA (PI intensity sub-G0/G1) is indicated at each time point. The experiments were repeated twice, in duplicates for each point (total n=4).

[4] = system: 15 other kinases including JNK, or mitogen-activated protein kinase-activated protein kinase 2; conditions: cited from earlier work

T1 sequence (O14920 whole entry): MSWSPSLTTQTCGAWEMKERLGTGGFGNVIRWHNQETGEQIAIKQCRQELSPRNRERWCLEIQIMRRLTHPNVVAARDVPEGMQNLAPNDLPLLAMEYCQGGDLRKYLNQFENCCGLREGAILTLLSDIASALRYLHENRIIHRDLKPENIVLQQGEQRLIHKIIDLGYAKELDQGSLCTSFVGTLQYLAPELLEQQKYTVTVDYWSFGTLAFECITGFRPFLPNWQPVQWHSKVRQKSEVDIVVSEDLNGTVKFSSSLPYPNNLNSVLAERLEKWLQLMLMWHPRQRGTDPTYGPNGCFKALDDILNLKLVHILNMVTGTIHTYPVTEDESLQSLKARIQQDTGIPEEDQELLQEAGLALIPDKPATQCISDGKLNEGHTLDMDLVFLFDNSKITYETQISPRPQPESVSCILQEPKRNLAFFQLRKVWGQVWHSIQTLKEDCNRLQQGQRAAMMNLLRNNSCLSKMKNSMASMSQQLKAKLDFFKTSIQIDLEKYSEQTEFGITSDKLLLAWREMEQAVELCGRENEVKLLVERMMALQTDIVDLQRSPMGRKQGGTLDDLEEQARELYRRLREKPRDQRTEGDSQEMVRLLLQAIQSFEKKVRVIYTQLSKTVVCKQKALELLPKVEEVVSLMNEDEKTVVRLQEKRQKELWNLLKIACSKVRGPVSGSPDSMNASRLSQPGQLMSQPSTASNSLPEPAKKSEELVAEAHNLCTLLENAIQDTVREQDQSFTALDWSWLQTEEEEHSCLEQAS
T1 sequence (O15111 whole entry): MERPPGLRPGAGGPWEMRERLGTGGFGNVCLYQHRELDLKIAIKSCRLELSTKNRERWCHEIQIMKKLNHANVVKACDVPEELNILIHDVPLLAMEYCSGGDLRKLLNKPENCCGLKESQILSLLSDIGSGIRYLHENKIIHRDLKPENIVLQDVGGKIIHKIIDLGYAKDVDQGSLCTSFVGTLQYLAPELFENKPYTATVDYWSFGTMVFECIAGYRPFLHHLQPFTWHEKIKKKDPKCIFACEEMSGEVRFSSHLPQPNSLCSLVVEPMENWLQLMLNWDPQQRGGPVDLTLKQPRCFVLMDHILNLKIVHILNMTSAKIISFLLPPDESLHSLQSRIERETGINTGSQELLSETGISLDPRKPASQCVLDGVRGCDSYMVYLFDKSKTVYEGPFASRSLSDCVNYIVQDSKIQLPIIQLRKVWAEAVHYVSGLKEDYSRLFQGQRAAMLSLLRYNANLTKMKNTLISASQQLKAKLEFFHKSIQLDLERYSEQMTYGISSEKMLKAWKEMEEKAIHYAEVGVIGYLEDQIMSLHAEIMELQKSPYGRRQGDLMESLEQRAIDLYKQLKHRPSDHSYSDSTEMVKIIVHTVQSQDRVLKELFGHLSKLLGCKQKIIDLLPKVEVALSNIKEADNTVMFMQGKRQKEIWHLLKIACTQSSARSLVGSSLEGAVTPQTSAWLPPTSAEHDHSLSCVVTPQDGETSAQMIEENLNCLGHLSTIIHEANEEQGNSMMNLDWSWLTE
T1 sequence (Q9Y6K9 whole entry partner): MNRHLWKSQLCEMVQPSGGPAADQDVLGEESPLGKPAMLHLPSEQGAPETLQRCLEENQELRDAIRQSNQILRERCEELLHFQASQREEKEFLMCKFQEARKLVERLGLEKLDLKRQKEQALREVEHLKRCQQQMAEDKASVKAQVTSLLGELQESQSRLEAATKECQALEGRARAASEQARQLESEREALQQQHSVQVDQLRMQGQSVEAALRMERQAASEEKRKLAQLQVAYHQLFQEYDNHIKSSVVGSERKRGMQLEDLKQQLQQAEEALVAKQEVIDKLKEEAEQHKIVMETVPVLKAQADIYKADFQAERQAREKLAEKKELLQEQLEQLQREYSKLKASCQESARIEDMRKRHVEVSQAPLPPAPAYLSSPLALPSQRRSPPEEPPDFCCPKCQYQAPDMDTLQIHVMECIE

## Cc1ccc2nc(NCCN)c3ncc(C)n3c2c1.Cl [BMS-345541, 4(2′-aminoethyl)amino-1,8-dimethylimidazo(1,2-a)quinoxaline]
SK-Mel-5 cells [1]; 10 μM or 100 μM, 14 h (FIG. 1A)
  cell morphology: appeared morphologically apoptotic
SK-Mel-5 cells [1]; Sk-Mel-5, 0.1 μM
  cell number after three days of culture: 3.7 ± 0.55 10^5
SK-Mel-5 cells [1]; Sk-Mel-5, 1.0 μM
  cell number after three days of culture: 2.7 ± 0.31 10^5
SK-Mel-5 cells [1]; Sk-Mel-5, 10 μM
  cell number after three days of culture: 0.028 ± 0.02 10^5
SK-Mel-5 cells [1]; Sk-Mel-5, 100 μM
  cell number after three days of culture: 0 10^5
A375 tumors
  inhibition of tumor growth: 69±11%
[2]; 75 mg/kg oral, 1.5 h (FIG. 1E)
  concentration in tumor tissues: 19±2.5 nmoles/g tissue protein
[2]; 75 mg/kg oral, 3 h (FIG. 1E)
  concentration in tumor tissues: 44±1.5 nmoles/g tissue protein
[2]; 75 mg/kg oral, 5 h (FIG. 1E)
  concentration in tumor tissues: 30±1.0 nmoles/g tissue protein
[2]; 75 mg/kg oral, 8 h (FIG. 1E)
  concentration in tumor tissues: 29±2.5 nmoles/g tissue protein
[2]; 75 mg/kg oral, 24 h (FIG. 1E)
  concentration in tumor tissues: 11±0.83 nmoles/g tissue protein
[2]; 8 h after oral dose of 10 mg/kg
  tumor tissue level: 3.2±0.97 nmoles per gram tissue protein
[2]; 8 h after oral dose of 25 mg/kg
  tumor tissue level: 12.5±3.28 nmoles per gram tissue protein
[2]; 8 h after oral dose of 75 mg/kg (dose series)
  tumor tissue level: 28.1±2.65 nmoles per gram tissue protein
[2]; nude, mouse, serum, 75 mg/kg oral, 1.5 h (FIG. 1E)
  concentration at 1.5 h: 6.6 ± 0.31 µM
[2]; nude, mouse, serum, 75 mg/kg oral, 3 h (FIG. 1E)
  concentration at 3 h: 18 ± 1.3 µM
[2]; nude, mouse, serum, 75 mg/kg oral, 5 h (FIG. 1E)
  concentration at 5 h: 5.2 ± 0.19 µM
[2]; nude, mouse, serum, 75 mg/kg oral, 8 h (FIG. 1E)
  concentration at 8 h: 4.1 ± 0.22 µM
[2]; nude, mouse, serum, 75 mg/kg oral, 24 h (FIG. 1E)
  concentration at 24 h: 1.1 ± 0.065 µM
[2]; nude, mouse, serum, 8 h after oral dose of 10 mg/kg
  concentration at 8 h: 0.9 ± 0.25 µM
[2]; nude, mouse, serum, 8 h after oral dose of 25 mg/kg
  concentration at 8 h: 3.1 ± 1.1 µM
[2]; nude, mouse, serum, 8 h after oral dose of 75 mg/kg (dose series)
  concentration at 8 h: 8.2 ± 1.1 µM
NF-κB; SK-Mel-5, 0.1 μM
  reduction in NF-κB-dependent luciferase activity: 36%
NF-κB; SK-Mel-5, 1.0 μM
  reduction in NF-κB-dependent luciferase activity: 75%
NF-κB; SK-Mel-5, 10 μM
  reduction in NF-κB-dependent luciferase activity: 95%
IKK
  IKK activity in SK-Mel-5 melanoma cells: reduced by BMS-345541 in a concentration-dependent fashion
Melanoma tumor; 25 mg/kg daily
  nuclear apoptosis in tumor sections (H&E, TUNEL): obvious nuclear condensation and DNA fragment staining
Melanoma tumor; 75 mg/kg
  TUNEL staining of tumor sections: TUNEL staining appeared extensively over the tumor sections
SK-Mel-5 cells [3]; AIF siRNA-transfected cells
  rate of apoptotic cells: 10.3±3.8%
SK-Mel-5 cells [3]; control siRNA-transfected cells
  rate of apoptotic cells: 24.3±6.8%
SK-Mel-5 cells [3]; SK-Mel-5, 10 μM, 0-48 h (FIG. 4H)
  induction of DNA fragmentation: time-dependent
[4]
  effect on 15 other kinases: failing to affect
